{"source": "patent US10238688B2", "about": "“Combination therapies for bladder cancer” (GENEDIA BIOTECH CO. LTD., priority 2015, dated 2019);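 as to digitalized pathway activity, Notch: code −1 means repressed below 0.5-fold of 5637 cells or no-drug control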;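 as to digitalized pathway activity, Wnt: code −1 means repressed below 0.5-fold of 5637 cells or no-drug control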", "key": {"[1]": {"system": "5637", "assay": "MTT cell survival / IC50, 5637 cells", "format": "cell-based, human"}, "[2]": {"system": "H-bc", "assay": "MTT cell survival / IC50, H-bc cells", "format": "cell-based, human"}, "[3]": {"system": "EJ", "assay": "MTT cell survival / IC50, EJ cells", "format": "cell-based, human"}, "[4]": {"system": "Biu87", "assay": "MTT cell survival / IC50, Biu87 cells", "format": "cell-based, human"}, "[5]": {"system": "SV-HUC-1", "format": "cell-based"}, "[6]": {"system": "ER Stress pathway", "assay": "Cignal Finder dual-luciferase pathway reporter, ER Stress", "format": "cell-based, human", "settings": "for Relative activity, ER Stress reporter: luc/Renluc relative to negative control reporter, single drug at 4 folds vs EH/Ci/Mi combination", "description": "(§1) The pathway analysis was performed with Qiagen's Cignal Finder Pathway Reporter Array systems according to the manufacturer's instructions. The pathway-focused dual-luciferase reporter construct was a mixture of an inducible transcription factor responsive firefly luciferase reporter and constitutively expressing renilla construct. Transcriptional response element (TRE) sequence response elements to each specific transcriptional factor triggered by the different signaling pathways are positioned before the TATA box of firefly luciferase reporter gene. The extent of activity of the reporter reflects the level of activity of the particular signaling pathway. CMV controlled renilla expression vector is co-transfected into the cell as an internal control. Non-inducible reporter construct that lacks the transcriptional factor binding sequence and could not be induced by any transcription factors is used as a negative control. Cells transfected with CMV directed firefly luciferase reporter gene serve as a positive control. Briefly, cells seeded in 6-well plates were transfected with Cignal finder pathway arrays according to the manufacturer's instructions (Qiagen). Then cells were seeded onto 96-well plates. Ci (6000 ng/mL), Mi (800 ng/mL), or EH (1000 ng/mL) and Ci/Mi/EH combination (Ci, 1500 ng/mL, Mi, 800 ng/mL and EH, 1000 ng/m L) were then added to the cells 24 h post-transfection. After 6 h of incubation with the different drugs at 37° C., cells were lysed and a dual luciferase assay (for firefly and renilla luciferase) was performed using a PromegaGloMax 20/20 illuminometer. The firefly luciferase activities were normalized over the renilla luciferase activities after background activity determined by luciferase activities of negative controls was subtracted. A triple test of cell survival under these drug doses was also performed by MTT assay following 18 h incubation at 37° C. […]"}, "[7]": {"system": "Wnt pathway", "assay": "Cignal Finder dual-luciferase pathway reporter, Wnt", "format": "cell-based, human", "design": "key to Relative activity, Wnt reporter: firefly/renilla ratio, background (negative control) subtracted", "settings": "for Relative activity, Wnt reporter: luc/Renluc relative to negative control reporter, single drug at 4 folds vs EH/Ci/Mi combination", "description": "as §1"}, "[8]": {"system": "Notch pathway", "assay": "Cignal Finder dual-luciferase pathway reporter, Notch", "format": "cell-based, human", "design": "key to Relative activity, Notch reporter: firefly/renilla ratio, background (negative control) subtracted", "settings": "for Relative activity, Notch reporter: luc/Renluc relative to negative control reporter, single drug at 4 folds vs EH/Ci/Mi combination", "description": "as §1"}}}
{"smiles": "COC12C(COC(N)=O)C3=C(C(=O)C(C)=C(N)C3=O)N1CC1NC12", "note": "(centres unmarked) [Mi, [6-Amino-8a-methoxy-5-methyl-4,7-dioxo-1,1a,2,4,7,8,8a,8b-octahydroazireno [2′,3′:3,4]pyrrolo[1,2-a]indol-8-yl]methyl carbamate]", "values": [{"measurement": "Cell survival (%)", "setting": "[1]; 5637, Table S3, ng/ml: Pi 40, Pa 160, EH 250, Ci 1500, Mi 200, 1=Ci/Mi, 2=EH/Ci/Mi, 3=Pa/Ci/Mi, 4=Pi/Ci/Mi", "result": 53.16, "unit": "%"}, {"measurement": "Single drug 4X Cell Survival (%)", "setting": "[1]; 5637, ng/ml: EH 1000, Ci 6000, Mi 800, Pi 160, Pa 640, Ge 20, EH/Ci/Mi regimen", "result": 35.46, "unit": "%"}, {"measurement": "Cell survival 72 hours", "setting": "[1]; 5637 cells, Table 4 (A)", "result": 35.46, "unit": "%"}, {"measurement": "ACS (%)", "setting": "[1]; 5637 cells, Table 4 (B)", "result": 35.46, "unit": "%"}, {"measurement": "Cell survival 72 hours", "setting": "[2]; H-bc cells, Table 4 (A)", "result": 81.16, "unit": "%"}, {"measurement": "ACS (%)", "setting": "[2]; H-bc cells, Table 4 (B)", "result": 81.16, "unit": "%"}, {"measurement": "Cell survival (%)", "setting": "[2]; H-bc, Table S3, ng/ml: Pi 40, Pa 160, EH 250, Ci 1500, Mi 200, 1=Ci/Mi, 2=EH/Ci/Mi, 3=Pa/Ci/Mi, 4=Pi/Ci/Mi", "result": 91.67, "unit": "%"}, {"measurement": "Single drug 4X Cell Survival (%)", "setting": "[2]; H-bc, ng/ml: EH 1000, Ci 6000, Mi 800, Pi 160, Pa 640, Ge 20, EH/Ci/Mi regimen", "result": 81.16, "unit": "%"}, {"measurement": "Cell survival (%)", "setting": "[3]; Table S3, ng/ml: Pi 40, Pa 160, EH 250, Ci 1500, Mi 200, 1=Ci/Mi, 2=EH/Ci/Mi, 3=Pa/Ci/Mi, 4=Pi/Ci/Mi", "result": 45.2, "unit": "%"}, {"measurement": "Single drug 4X Cell Survival (%)", "setting": "[3]; ng/ml: EH 1000, Ci 6000, Mi 800, Pi 160, Pa 640, Ge 20, EH/Ci/Mi regimen", "result": 28.67, "unit": "%"}, {"measurement": "Cell survival (%)", "setting": "[4]; Biu87, Table S3, ng/ml: Pi 40, Pa 160, EH 250, Ci 1500, Mi 200, 1=Ci/Mi, 2=EH/Ci/Mi, 3=Pa/Ci/Mi, 4=Pi/Ci/Mi", "result": 42.05, "unit": "%"}, {"measurement": "Single drug 4X Cell Survival (%)", "setting": "[4]; Biu87, ng/ml: EH 1000, Ci 6000, Mi 800, Pi 160, Pa 640, Ge 20, EH/Ci/Mi regimen", "result": 21.74, "unit": "%"}, {"measurement": "Cell survival 72 hours", "setting": "[4]; Biu87 cells, Table 4 (A)", "result": 21.74, "unit": "%"}, {"measurement": "ACS (%)", "setting": "[4]; Biu87 cells, Table 4 (B)", "result": 21.74, "unit": "%"}, {"measurement": "Single drug 4X Cell Survival (%)", "setting": "[5]; SV-HUC-1, ng/ml: EH 1000, Ci 6000, Mi 800, Pi 160, Pa 640, Ge 20, EH/Ci/Mi regimen", "result": 91.17, "unit": "%"}, {"measurement": "Cell survival 72 hours", "setting": "[5]; SV-HUC-1 cells, Table 4 (A)", "result": 91.17, "unit": "%"}, {"measurement": "ACS (%)", "setting": "[5]; SV-HUC-1 cells, Table 4 (B)", "result": 91.17, "unit": "%"}, {"measurement": "relative drug trigged pathway activity over the no-drug level, ER Stress", "setting": "[6]; 5637 cells", "result": 3.2, "unit": "fold"}, {"measurement": "Relative activity, ER Stress reporter", "setting": "[6]; 5637 cells", "result": 83.09}, {"measurement": "relative drug trigged pathway activity over the no-drug level, ER Stress", "setting": "[6]; Biu87 cells", "result": 1.65, "unit": "fold"}, {"measurement": "Relative activity, ER Stress reporter", "setting": "[6]; Biu87 cells", "result": 36.14}, {"measurement": "relative drug trigged pathway activity over the no-drug level, ER Stress", "setting": "[6]; H-bc cells", "result": 1.97, "unit": "fold"}, {"measurement": "Relative activity, ER Stress reporter", "setting": "[6]; H-bc cells", "result": 44.48}, {"measurement": "relative drug trigged pathway activity over the no-drug level, ER Stress", "setting": "[6]; SV-HUC-1 cells", "result": 1.51, "unit": "fold"}, {"measurement": "Relative activity, ER Stress reporter", "setting": "[6]; SV-HUC-1 cells", "result": 155.20}, {"measurement": "Relative activity, ER Stress reporter", "setting": "[6]; UM-UC-3 cells", "result": 109.59}, {"measurement": "relative drug trigged pathway activity over the no-drug level, ER Stress", "setting": "[6]; Um-Uc-3 cells", "result": 1.34, "unit": "fold"}, {"measurement": "relative drug trigged pathway activity over the no-drug level, Wnt", "setting": "[7]; 5637 cells", "result": 1.87, "unit": "fold"}, {"measurement": "Relative activity, Wnt reporter", "setting": "[7]; 5637 cells", "result": 1.63}, {"measurement": "digitalized pathway activity, Wnt", "setting": "[7]; Biu87 cells", "result": "0 (null (0) if neither of the above holds)"}, {"measurement": "relative drug trigged pathway activity over the no-drug level, Wnt", "setting": "[7]; Biu87 cells", "result": 1.06, "unit": "fold"}, {"measurement": "Relative activity, Wnt reporter", "setting": "[7]; Biu87 cells", "result": 1.77}, {"measurement": "digitalized pathway activity, Wnt", "setting": "[7]; H-bc cells", "result": "0 (null (0) if neither of the above holds)"}, {"measurement": "relative drug trigged pathway activity over the no-drug level, Wnt", "setting": "[7]; H-bc cells", "result": 0.55, "unit": "fold"}, {"measurement": "Relative activity, Wnt reporter", "setting": "[7]; H-bc cells", "result": 0.60}, {"measurement": "digitalized pathway activity, Wnt", "setting": "[7]; SV-HUC-1 cells", "result": "0 (null (0) if neither of the above holds)"}, {"measurement": "relative drug trigged pathway activity over the no-drug level, Wnt", "setting": "[7]; SV-HUC-1 cells", "result": 1.29, "unit": "fold"}, {"measurement": "Relative activity, Wnt reporter", "setting": "[7]; SV-HUC-1 cells", "result": 1.60}, {"measurement": "digitalized pathway activity, Wnt", "setting": "[7]; UM-UC-3 cells", "result": "0 (null (0) if neither of the above holds)"}, {"measurement": "Relative activity, Wnt reporter", "setting": "[7]; UM-UC-3 cells", "result": 4.06}, {"measurement": "relative drug trigged pathway activity over the no-drug level, Wnt", "setting": "[7]; Um-Uc-3 cells", "result": 1.13, "unit": "fold"}, {"measurement": "relative drug trigged pathway activity over the no-drug level, Notch", "setting": "[8]; 5637 cells", "result": 2.2, "unit": "fold"}, {"measurement": "Relative activity, Notch reporter", "setting": "[8]; 5637 cells", "result": 2.23}, {"measurement": "digitalized pathway activity, Notch", "setting": "[8]; Biu87 cells", "result": "0 (null (0) if neither of the above holds)"}, {"measurement": "relative drug trigged pathway activity over the no-drug level, Notch", "setting": "[8]; Biu87 cells", "result": 1.45, "unit": "fold"}, {"measurement": "Relative activity, Notch reporter", "setting": "[8]; Biu87 cells", "result": 6.42}, {"measurement": "relative drug trigged pathway activity over the no-drug level, Notch", "setting": "[8]; H-bc cells", "result": 0.42, "unit": "fold"}, {"measurement": "Relative activity, Notch reporter", "setting": "[8]; H-bc cells", "result": 0.59}, {"measurement": "digitalized pathway activity, Notch", "setting": "[8]; SV-HUC-1 cells", "result": "0 (null (0) if neither of the above holds)"}, {"measurement": "relative drug trigged pathway activity over the no-drug level, Notch", "setting": "[8]; SV-HUC-1 cells", "result": 0.95, "unit": "fold"}, {"measurement": "Relative activity, Notch reporter", "setting": "[8]; SV-HUC-1 cells", "result": 4.10}, {"measurement": "Relative activity, Notch reporter", "setting": "[8]; UM-UC-3 cells", "result": 7.40}, {"measurement": "relative drug trigged pathway activity over the no-drug level, Notch", "setting": "[8]; Um-Uc-3 cells", "result": 1.5, "unit": "fold"}]}
